These results are taken from patent publication US9458198B1, “Cyclic peptide-based NPR-B agonists” (priority 2009, dated 2016).

The structures appear in SMILES notation. Where a SMILES comes first, the peptide text is derived from it. Bridges are numbered along the chain shown (N, C = ends). [ ]: non-standard residue; d: D form. The star is where a group is joined. Hexanoyl = CCCCCC(=O)*

In the first test the test system is human colon adenocarcinoma cells.
Test: not given
As to conditions: 1 mM, within 24 h; cited from earlier work.
As for `CC[C@H](C)[C@@H]1NC(=O)[C@H](CCCNC(=N)N)NC(=O)[C@H](CC(=O)O)NC(=O)[C@H](CCSC)NC(=O)[C@H](CCCNC(=N)N)NC(=O)CNC(=O)CNC(=O)[C@H](Cc2ccccc2)NC(=O)[C@@H](NC(=O)[C@H](CO)NC(=O)[C@H](CO)NC(=O)[C@H](CCCNC(=N)N)NC(=O)[C@H](CCCNC(=N)N)NC(=O)[C@H](CC(C)C)NC(=O)[C@@H](N)CO)CSSC[C@@H](C(=O)N[C@@H](CC(N)=O)C(=O)N[C@@H](CO)C(=O)N[C@@H](Cc2ccccc2)C(=O)N[C@@H](CCCNC(=N)N)C(=O)N[C@@H](Cc2ccc(O)cc2)C(=O)O)NC(=O)CNC(=O)[C@H](CC(C)C)NC(=O)CNC(=O)[C@H](CO)NC(=O)[C@H](CCC(N)=O)NC(=O)[C@H](C)NC(=O)CNC1=O` [ANP, atrial natriuretic peptide], the “decrease in cell number” value was “up to 97%”.

The next test has as its target T1, NPR-B (Homo sapiens, UniProt P20594).
T1 construct: a functional assay using endogenously NPR-B expressing GTM-3 cells; endogenous in cells; host or cells: GTM-3 (transformed human trabecular meshwork cells)
T1 sequence (P20594 23-1047): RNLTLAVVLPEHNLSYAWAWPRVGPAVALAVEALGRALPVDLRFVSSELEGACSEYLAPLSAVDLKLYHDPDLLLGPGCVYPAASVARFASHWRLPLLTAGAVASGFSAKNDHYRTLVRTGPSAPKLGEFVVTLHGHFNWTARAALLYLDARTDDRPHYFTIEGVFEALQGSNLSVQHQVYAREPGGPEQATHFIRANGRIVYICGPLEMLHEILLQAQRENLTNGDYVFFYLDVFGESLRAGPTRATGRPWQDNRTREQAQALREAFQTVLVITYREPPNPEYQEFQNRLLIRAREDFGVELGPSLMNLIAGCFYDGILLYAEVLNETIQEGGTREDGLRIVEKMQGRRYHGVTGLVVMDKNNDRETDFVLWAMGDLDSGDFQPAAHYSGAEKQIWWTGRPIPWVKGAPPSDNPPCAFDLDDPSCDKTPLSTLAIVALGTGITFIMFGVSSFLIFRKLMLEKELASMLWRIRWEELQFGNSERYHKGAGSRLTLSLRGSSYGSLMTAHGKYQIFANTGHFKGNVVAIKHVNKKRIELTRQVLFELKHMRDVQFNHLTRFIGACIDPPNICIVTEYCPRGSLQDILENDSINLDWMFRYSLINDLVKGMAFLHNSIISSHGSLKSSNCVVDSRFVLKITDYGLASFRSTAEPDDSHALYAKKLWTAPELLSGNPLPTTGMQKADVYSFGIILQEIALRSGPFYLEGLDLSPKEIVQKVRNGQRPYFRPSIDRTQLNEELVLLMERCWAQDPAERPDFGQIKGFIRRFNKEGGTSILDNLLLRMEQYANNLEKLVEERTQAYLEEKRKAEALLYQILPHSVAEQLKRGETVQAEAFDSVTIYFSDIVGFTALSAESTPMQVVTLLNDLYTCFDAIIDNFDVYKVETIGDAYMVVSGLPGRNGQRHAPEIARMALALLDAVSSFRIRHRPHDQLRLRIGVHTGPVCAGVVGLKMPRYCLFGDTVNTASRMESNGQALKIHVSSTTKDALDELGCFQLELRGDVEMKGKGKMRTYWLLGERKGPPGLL
The experiment in a line: NPR-B induced production of cyclic GMP in GTM-3 cells. The format is cell-based. The following applies: Activity (group): NPR-B activation, EC50 and Emax (CNP = 100%). The essentials: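 GTM-3 cells with endogenous NPR-B were washed and preincubated 15 min at room temperature in medium with 1 mM IBMX. Compounds were tested at final 45 μM to 20 nM; dose-dependent cGMP production gave Emax and EC50.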
The term EC50 denotes the concentration giving half of the maximal effect. With `CC[C@H](C)[C@@H]1NC(=O)[C@H](CCCNC(=N)N)NC(=O)[C@H](CC(=O)O)NC(=O)[C@H](CC(C)C)NC(=O)[C@H](CCCCN)NC(=O)[C@H](CC(C)C)NC(=O)CNC(=O)[C@H](Cc2ccccc2)NC(=O)[C@@H](C)NC(=O)[C@@H](NC(=O)CCCc2ccccc2)CSSC[C@@H](C(N)=O)NC(=O)[C@H](CO)NC1=O` [compound 72], the EC50 was less than 1 µM.

As for `CCCCCCCC(=O)N[C@H]1CSSC[C@@H](C(N)=O)NC(=O)[C@H](CO)NC(=O)[C@H]([C@@H](C)CC)NC(=O)[C@H](CCCNC(=N)N)NC(=O)[C@H](CC(=O)O)NC(=O)[C@H](CC(C)C)NC(=O)[C@H](CCCCN)NC(=O)[C@H](CC(C)C)NC(=O)CNC(=O)[C@H](Cc2ccccc2)NC(=O)[C@@H](C)NC1=O` [compound 68], the EC50 is less than 1 µM.

Still in this test, the particulars now being: Activity (group): NPR-B activation, EC50 and Emax (CNP = 100%), GTM-3 cells; group needs both EC50 and Emax criteria, checked A then B then C.
Turning to `CC[C@H](C)[C@@H]1NC(=O)[C@H](CCCNC(=N)N)NC(=O)[C@H](CC(=O)O)NC(=O)[C@H](CC(C)C)NC(=O)[C@@H]2CCCN2C(=O)[C@H](CC(C)C)NC(=O)CNC(=O)[C@H](Cc2ccccc2)NC(=O)[C@@H](C)NC(=O)[C@@H](NC(=O)[C@@H](N)CCSC)CSSC[C@@H](C(N)=O)NC(=O)[C@H](CO)NC1=O` [compound 49], the concentration for a half-maximal effect (EC50) was less than 1 µM. The same measure, in the same setting: under `CCCCCC(=O)N[C@H]1CSSC[C@@H](C(N)=O)NC(=O)[C@H](CO)NC(=O)[C@H]([C@@H](C)CC)NC(=O)[C@H](CCCNC(=N)N)NC(=O)[C@H](CC(=O)O)NC(=O)[C@H]([C@@H](C)CC)NC(=O)[C@@H]2CCCN2C(=O)[C@H](CC(C)C)NC(=O)CNC(=O)[C@H](Cc2ccccc2)NC(=O)[C@H]2CCCN2C1=O` [compound 89] (Hexanoyl-C[dP]FGLPIDRISC-NH2; disulfide 1-12) stands less than 1 µM.

Staying with this test, now noted: GTM-3 cells; group needs both EC50 and Emax criteria, checked A then B then C; read-out: Activity (group): NPR-B activation, EC50 and Emax (CNP = 100%).
As for `CCCCCC(=O)N[C@H]1CSSC[C@@H](C(N)=O)NC(=O)[C@H](CO)NC(=O)[C@H]([C@@H](C)CC)NC(=O)[C@H](CCCNC(=N)N)NC(=O)[C@H](CC(=O)O)NC(=O)[C@H](CC(C)C)NC(=O)[C@H](CCCCN)NC(=O)CNC(=O)CNC(=O)[C@H](Cc2ccccc2)NC(=O)[C@@H](C)NC1=O` [compound 102] (Hexanoyl-C[dA]FGGKLDRISC-NH2; disulfide 1-12), the concentration for a half-maximal effect (EC50) is less than 5 µM. Take `CCCCCC(=O)N[C@H]1CSSC[C@@H](C(N)=O)NC(=O)[C@H](CO)NC(=O)C2(CCOCC2)NC(=O)[C@H](CCCNC(=N)N)NC(=O)[C@H](CC(=O)O)NC(=O)[C@H](CC(C)C)NC(=O)[C@H](CCCCN)NC(=O)[C@H](CC(C)C)NC(=O)CNC(=O)[C@H](Cc2ccccc2)NC(=O)[C@@H](C)NC1=O` [compound 116]: the EC50 is less than 15 µM. Turning to `CC[C@H](C)[C@@H]1NC(=O)[C@H](CCCNC(=N)N)NC(=O)[C@H](CC(=O)O)NC(=O)[C@H](CC(C)C)NC(=O)[C@H](CCCCN)NC(=O)[C@H](CC(C)C)NC(=O)CNC(=O)[C@H](Cc2ccccc2)NC(=O)[C@@H](C)NC(=O)[C@@H](NC(=O)[C@@H](N)CCSC)CSSC[C@@H](C(N)=O)NC(=O)[C@H](CO)NC1=O` [compound 38], the EC50 is less than 5 µM. As for `CCCCCC(=O)N[C@H]1CSSC[C@@H](C(N)=O)NC(=O)[C@H](CO)NC(=O)[C@H]([C@@H](C)CC)NC(=O)[C@H](CCCNC(=N)N)NC(=O)[C@H](CC(=O)O)NC(=O)[C@H](CC(C)C)NC(=O)[C@H](CCCCN)NC(=O)[C@H](CC(C)C)NC(=O)CNC(=O)[C@H](Cc2ccccc2)NC(=O)[C@H]2CCCN2C1=O` [compound 90], the concentration for a half-maximal effect (EC50) is less than 1 µM. Still for that read-out and setting: then `CCCCS(=O)(=O)N[C@H]1CSSC[C@@H](C(N)=O)NC(=O)[C@H](CO)NC(=O)[C@H]([C@@H](C)CC)NC(=O)[C@H](CCCNC(=N)N)NC(=O)[C@H](CC(=O)O)NC(=O)[C@H](CC(C)C)NC(=O)[C@H](CCCCN)NC(=O)[C@H](CC(C)C)NC(=O)CNC(=O)[C@H](Cc2ccccc2)NC(=O)[C@@H](C)NC1=O` [compound 71], with less than 5 µM; and `CC[C@H](C)[C@@H]1NC(=O)[C@H](CCCNC(=N)N)NC(=O)[C@H](CC(=O)O)NC(=O)[C@H](CC(C)C)NC(=O)[C@H](CCCCN)NC(=O)[C@H](CC(C)C)NC(=O)CNC(=O)[C@H](Cc2ccccc2)NC(=O)[C@H](Cc2c[nH]cn2)NC(=O)[C@@H](NC(=O)[C@H](N)CCSC)CSSC[C@@H](C(N)=O)NC(=O)[C@H](CO)NC1=O` [compound 10], with less than 5 µM; and `CC[C@H](C)[C@@H]1NC(=O)[C@H](CCCNC(=N)N)NC(=O)[C@H](CC(=O)O)NC(=O)[C@H](CC(C)C)NC(=O)[C@H](CCCCN)NC(=O)[C@H](CC(C)C)NC(=O)[C@@H](C)NC(=O)[C@H](Cc2ccccc2)NC(=O)[C@@H](Cc2c[nH]cn2)NC(=O)[C@@H](NC(=O)[C@@H](N)CCSC)CSSC[C@@H](C(N)=O)NC(=O)[C@H](CO)NC1=O` [compound 35], with less than 5 µM. With `CC[C@H](C)[C@@H]1NC(=O)[C@H](CCCNC(=N)N)NC(=O)[C@H](CC(=O)O)NC(=O)[C@H](CC(C)C)NC(=O)[C@H](CCCCN)NC(=O)[C@H](CC(C)C)NC(=O)CNC(=O)[C@H](Cc2ccccc2)NC(=O)[C@H](Cc2c[nH]cn2)NC(=O)[C@@H](NC(=O)[C@@H](N)CCSC)CSSC[C@@H](C(=O)N[C@@H](Cc2ccc(O)cc2)C(=O)N[C@@H](CC(N)=O)C(N)=O)NC(=O)[C@H](CO)NC1=O` [compound 27] (H-MCHFGLKLDRISCYN-NH2; disulfide 2-13), the concentration for a half-maximal effect (EC50) was less than 5 µM. Same read-out and setting: then `CC[C@H](C)[C@@H]1NC(=O)[C@H](CCCNC(=N)N)NC(=O)[C@H](CC(=O)O)NC(=O)[C@H](CC(C)C)NC(=O)[C@H](CCCCN)NC(=O)[C@H](CC(C)C)NC(=O)CNC(=O)[C@H](Cc2ccccc2)NC(=O)[C@H]2CCCN2C(=O)[C@@H](NC(=O)[C@@H](N)CCSC)CSSC[C@@H](C(N)=O)NC(=O)[C@H](CO)NC1=O` [compound 37], with less than 5 µM; and `CC[C@H](C)[C@@H]1NC(=O)[C@H](CCCNC(=N)N)NC(=O)[C@H](CC(=O)O)NC(=O)[C@H](CC(C)C)NC(=O)[C@H](CCCCN)NC(=O)[C@H](CC(C)C)NC(=O)CNC(=O)[C@H](Cc2ccccc2)NC(=O)[C@@H](Cc2c[nH]cn2)NC(=O)[C@@H](NC(=O)[C@@H](N)CCSC)CSSC[C@@H](C(N)=O)NC(=O)[C@H](CO)NC1=O` [compound 12], with less than 5 µM; and `CCCCCC(=O)N[C@H]1CSSC[C@@H](C(N)=O)NC(=O)[C@H](CO)NC(=O)[C@H]([C@@H](C)CC)NC(=O)[C@H](CCCNC(=N)N)NC(=O)[C@H](CC(=O)O)NC(=O)[C@H](CC(C)C)NC(=O)[C@H](CCCCN)NC(=O)[C@H](C)NC(=O)CNC(=O)[C@H](Cc2ccccc2)NC(=O)[C@@H](C)NC1=O` [compound 101] (Hexanoyl-C[dA]FGAKLDRISC-NH2; disulfide 1-12), with less than 5 µM.

As to `CC[C@H](C)[C@@H]1NC(=O)[C@H](CCCNC(=N)N)NC(=O)[C@H](CC(=O)O)NC(=O)[C@H](CC(C)C)NC(=O)[C@H](CCCCN)NC(=O)[C@H](CC(C)C)NC(=O)CNC(=O)[C@H](Cc2ccccc2)NC(=O)[C@H](Cc2c[nH]cn2)NC(=O)[C@@H](NC(=O)[C@@H](N)CCSC)CSSC[C@@H](C(N)=O)NC(=O)[C@H](CO)NC1=O` [compound 7], the EC50 was less than 5 µM.
